The subject of one series is RBCs. The experiment in a line: Hemolysis of RBCs / blood on incubation with compound. It is filed as cell-based, human. The following applies: compound 20 μM in DPBS with 5% DMSO.
Series [1] concerns the target deoxygenated hemoglobin (deoxyHb) (Homo sapiens, UniProt P68871). The experiment in a line: X-ray crystallography of deoxyHb complexed with Compound 1. In kind it is binding. The following applies: PDB 4L7Y, 1.80 Å. The protocol: To obtain unliganded hemoglobin structure in complex with 1, freshly prepared solution of 1 in DMSO was incubated with deoxygenated hemoglobin (deoxyHb) (30-50 mg/mL) for 1 h at a hemoglobin tetramer-1 molar ratio of 1:5, followed by crystallization with a low-salt precipitant (0.2 M sodium acetate trihydrate, 0.1 M sodium cacodylate trihydrate, pH 6.6 and 30% PEG 8000). The crystals were washed in a cryo-protectant solution containing mother liquor and glycerol (3:1 ratio) prior to data collection. The complex crystallized in the orthorhombic space group P21212 with typical cell dimensions a=96 Å, b=98 Å and c=65 Å with one functional tetramer per asymmetric unit.
Diffraction data of all crystals were collected at 100 K with a Rigaku IV ++ image plate detector using a CuKα X-rays (k=1.54 Å) from a MicroMax-007 source fitted with Varimax Confocal optics (Rigaku, The Woodlands, Tex.). The datasets were processed with the d*trek software (Rigaku) and the CCP4 suite of programs.
Initial phase for the deoxyHb-1 complex structure was obtained by a molecular replacement method with the program CNS, using human deoxyHb […] tetramer structure (PDB code 2DN2) as a search model. Subsequent structure refinements were performed with the CNS program. Model building and correction were carried out using the graphic program COOT. […]

The target in series [2] is T1, purified human hemoglobin (Homo sapiens, UniProt P68871).
T1 construct: For experiments with purified hemoglobin, hemoglobin (20 μM as tetramer) was dissolved in DPBS
As to the kind of experiment: Oxygen dissociation curve (ODC) of purified hemoglobin, Hemox analyzer, P50. In kind it is biochemical. The protocol:
The ODC of hemoglobin was measured with a Hemox analyzer (TCS Scientific Corporation) at 37° C. For experiments with purified hemoglobin, hemoglobin (20 μM as tetramer) was dissolved in DPBS and antifoam (0.2 vol %, Catalog No. AFA-25, TCS Scientific Corporation) was added to prevent foaming of the sample. Compounds were prepared in DMSO stock solutions then added to hemoglobin. The final concentration of DMSO was adjusted to 5 vol %. For experiments with RBCs, blood was drawn from volunteers into EDTA tubes. The blood was centrifuged for 15 min at 3,000 rpm at 4° C. The supernatant was discarded, and RBCs were washed three times with DPBS, pH 7.4 by dilution to 50% hematocrit. The washed RBCs were then diluted with Hemox solution (mixture of N-[Tris(hydroxymethyl)methyl]-2-aminoethanesulfonic acid (TES, 30 mM), sodium chloride (135 mM), and potassium chloride (5 mM) in water (pH 7.4), TCS Scientific Corporation), and mixed with the test compound stock solutions. When known allosteric effectors NEM (400 μM), 5HMF (2 mM) or formamidine disulfide (400 μM) were mixed with RBCs (20 μM as hemoglobin tetramer) for 1 h at 37° C., P50 was reduced to 8 Torr, 9 Torr, and 9 Torr respectively, which correlated with previous reports (see Garel et al., European Journal of Biochemistry, 1982, 123, 513-519). Data was analyzed by two-tailed, unpaired Student's t test using Microsoft Excel 2007.
A saturating effect on P50 was first determined by adding an increasing concentration of 2,3-DPG and IHP. No increase of P50 of hemoglobin was observed after an addition of a 30-fold molar excess of 2,3-DPG or IHP to hemoglobin. Hemoglobin (20 μM as tetramer) was pre-incubated with either 2,3-DPG (600 μM) or IHP (600 μM) followed by addition of Compound 1 (0, 50, 100, 150 and 200 μM) to the hemoglobin.

“And” between values parts separate entries of the source, which are not always exact repeats. Identical values can stand only once.

For the compound `Cc1cc(C)cc(C(=O)N(C)[C@H](Cc2ccc(-c3ccccc3)cc2)C(=O)N[C@@H](Cc2c[nH]c3ccccc23)C(=O)O)c1` [Compound 1, (S)-2-((R)-3-([1,1′-biphenyl]-4-yl)-2-(N,3,5-trimethylbenzamido)propanamido)-3-(1H-indol-3-yl)propanoic acid], the “Hemolysis of RBCs” value in the series with RBCs was “hemolysis”. In series [1], the “Binding site in deoxyHb crystal structure” value is on record as “non-covalently binds at the β-cleft on the dyad axis”. Further, the “Increase of P50 of hemoglobin, dose dependence” value in series [2] (FIG. 3, FIG. 6-7) is reported as “concentration-dependent”. In addition, the P50 of hemoglobin in series [2] (hemoglobin 20 μM tetramer, compound 200 μM, DPBS pH 7.4, 5 vol % DMSO, 37° C., hemoglobin alone 17 Torr) was 24 Torr and 24±0.4 Torr. For the same compound, the “P50 of hemoglobin pre-saturated with 2,3-DPG plus Compound 1” value in series [2] (hemoglobin 20 μM, 2,3-DPG 600 μM, Compound 1 200 μM) is on record as 29±0.5 Torr. In addition, the “Synergistic reduction of oxygen binding affinity in combination with 2,3-DPG” value in series [2] (hemoglobin 20 μM, 2,3-DPG 600 μM, Compound 1 up to 200 μM) is reported as “synergistic reduction”. Also, the “Synergistic reduction of oxygen binding affinity in combination with IHP” value in series [2] (hemoglobin 20 μM, IHP 600 μM, Compound 1 up to 200 μM) is “did not induce a synergistic reduction”. For the same compound, the “P50 with purified hemoglobin” value in series [2] (hemoglobin 20 μM, tested compound 120 μM, purified hemoglobin alone 17 Torr) is reported as 24 Torr.
